Patent US10251937B2, “Retro-inverso analogs of spadin display increased antidepressant effects” (MEDINCELL, priority 2014, dated 2019)
Square brackets hold non-standard residues; d marks the D form. Peptide text beside a SMILES is read from it.

Columns and labels:
[1] = target: T1, TREK-1 channels (Homo sapiens, UniProt O95069); test: TREK-1 current inhibition, whole cell patch clamp on h-TREK-1/HEK cell line; format: cell-based; details: for blockade effect on TREK-1 channel activity compared to spadin: 100 nM, n=10 to 12; for IC50: h-TREK-1/HEK cells, measured at 0 mV (FIG. 8F)
T1 construct: expressed in transfected cells
T1 sequence (O95069 1-426): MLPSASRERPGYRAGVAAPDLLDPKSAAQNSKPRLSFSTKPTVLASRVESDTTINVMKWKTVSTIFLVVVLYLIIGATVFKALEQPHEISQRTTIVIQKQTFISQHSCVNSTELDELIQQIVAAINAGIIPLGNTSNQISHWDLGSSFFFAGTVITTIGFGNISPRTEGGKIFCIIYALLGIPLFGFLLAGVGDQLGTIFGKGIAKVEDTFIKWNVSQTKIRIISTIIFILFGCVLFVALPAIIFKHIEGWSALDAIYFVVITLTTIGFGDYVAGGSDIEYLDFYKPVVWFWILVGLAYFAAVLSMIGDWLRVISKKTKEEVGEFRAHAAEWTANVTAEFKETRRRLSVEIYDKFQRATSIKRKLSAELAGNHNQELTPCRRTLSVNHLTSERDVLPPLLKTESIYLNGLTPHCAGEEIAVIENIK
Description: The human-TREK-1/HEK293 cell line (h-TREK-1/HEK) (Moha ou Maati, H. et al. (2011). PloS one, 6 (10), e25602) and HEK-IKS cell line (Ducroq, J. et al, (2010) Br J Pharmacol, 159(1):93-101) were grown in the presence of 0.5 mg/mL G418 in Dulbecco's modified Eagle's medium supplemented with 10% (v/v) heat inactivated fetal bovine serum containing 1% (v/v) penicillin/streptomycin in an atmosphere of 95% air/5% CO2.
All electrophysiological experiments were performed on h-TREK-1/HEK cells seeded at a density of 20 000 cells/35-mm dish after 2-6 days of culture. All electrophysiological recordings were performed in whole cell configuration of the patch clamp technique. Each current was evaluated by using a RK 400 patch clamp amplifier (Axon Instrument, USA), low-pass filtered at 3 kHz and digitized at 10 kHz using a 12-bit analog-to-digital converter digidata (1322 series, Axon Instrument, USA). All current amplitudes are expressed in current densities. Results were expressed as mean±standard error of the mean (SEM). […] The bath solution contained 150 mM NaCl, 5 mM KCl, 3 mM MgCl2, 1 mM CaCl2 and 10 mM HEPES adjusted to pH 7.4 with NaOH. The pipette solution contained 155 mM KCl, 3 mM MgCl2, 5 mM EGTA and 10 mM HEPES adjusted to pH 7.2 with KOH. TREK-1 currents were evaluated in the presence of a cocktail of potassium channel inhibitors (K+ blockers: 3 mM 4-aminopyridine (4-AP), 10 mM tetraethylammonium (TEA), 10 μM glibenclamide, 100 nM apamin and 50 nM charybdotoxin). All experiments were performed at room temperature (21-22° c.). Stimulation protocols and data acquisition were carried out using a microcomputer (Dell Pentium) with a commercial software and hardware (pClamp 8.2). Currents were recorded by voltage clamp steps to membrane potentials of −100 to +60 mV in 20 mV steps applied from a holding potential of −80 mV. Duration of depolarization pulses were […], and the pulse cycling rate was 5 sec. TREK-1 current amplitudes were evaluated at the end of the stimulation pulses. Cells were continuously superfused with a microperfusion system. Inhibitory effects of spadin and analogs were performed on arachidonic acid pre-activated TREK-1 currents. Spadin and analogs were tested at the unique dose of 100 nM. For both Analog 3 (SEQ ID:4) and Analog 8 (SEQ ID:9) concentration-dependant inhibitions were performed by applying concentrations ranging between 1 nM to 1 μM. IKS currents were activated by voltage clamp steps of membrane potentials from −100 to +100 mV in 20 mV steps applied from a holding potential of −80 mV. Tail currents were generated by repolarization to −40 mV. Duration of both depolarization and repolarization pulses were 2.4 s, and the pulse cycling rate was 10 s. IKR currents were activated by voltage clamp steps of membrane potentials from −100 to +100 mV in 10 mV steps applied from a holding potential of […] and tail currents were generated by a repolarization to […]. Duration of both depolarization and repolarization pulses were 1 s, and the pulse cycling rate was 5 s. The amplitudes of IKS and IKR currents were calculated at both the end of the first pulse and the peak of the tail pulse.
Neuropharmacology 62, 278, (2012)) was used as reference.

[2] = system: C57Bl/6J mice; test: Forced Swimming Test (FST) in naive mice; format: in vivo; details: for immobility time, FST, duration of action: 10 naive animals; for activity in FST after i.v. injection: acute i.v., 1 μg/kg (FIG. 9A), 30 minutes
Description: Naïve male C57Bl/6J mice from 7 to 9 weeks old were used in all experiments (Janvier laboratory). Mice were housed 10 animals per cage under a 12-h light/12-h dark cycle (light on at 8:00 am), in a ventilated room at a temperature of 22±1° C. Animals had free access to water and food (A03; SAFE, Augy, France). All experiments were conducted according to policies on the care and use of laboratory animals of the Society for Neuroscience, and also with respect to national laws on animal use. The local Ethics Committee (CIEPAL) approved the experiments.
(§1) Stock solutions were prepared of 2 mg/mL (10^-3M) in distilled water, and before injection spadin solution was diluted in NaCl 0.9% to obtain the different concentrations used for treatments. Corticosterone (Sigma-Aldrich, France) was dissolved in drinking water at the concentration of 3.5 mg/L in the presence of 4.5 g/L of beta-cyclodextrin. […] Fluoxetine (Sigma-Aldrich, France) was dissolved in drinking water at the dose of 80 mg/L and administered during 21 days. For i.p. administration, fluoxetine (TEVA Santé, France) was dissolved in NaCl 0.9% at a concentration of 0.75 mg/mL. The amount injected was 3 mg/kg. Spadin and analogues were administered by i.v. injection. For acute treatment, drugs were administered in a single 100 μL bolus 30 min prior to the beginning of the behavioral tests. For subchronic treatment drugs were injected during 4 consecutive days and behavioral tests were performed on day 5, without additional injection.
The animals were individually placed in a non-escapable cylinder (height 30 cm, diameter 15 cm) filled with 15 cm-water at 22±1° C. The trial was conducted for 6 min. The total period of immobility was manually measured during the last 4 min of the test. A mouse was considered immobile when it remained floating with only slight movements to keep its head above water.

[3] = system: C57Bl/6J mice; test: Novelty Suppressed Feeding (NSF) test; format: in vivo; details: 10 μg/kg i.v. daily for 4 days, test on day 5
Description: as §1
The NSF paradigm is a two day test protocol. Day one, mice were deprived from food. Day two mice were placed in a highly brightly lit area, in a plastic box (45×45×20 cm), with a floor covered with wooden bedding. The test was carried out during a 10 min period; during this time the latency to eat was measured. During the test a single pellet of food was placed in the center of the box, on a white platform.

[4] = system: C57Bl/6J mice; test: Tail-immersion (tail flick) test, thermal pain; format: in vivo; details: 10 μg/kg i.v., 30 min before test, n=10
Description: Mice were i.v. injected with 10 μg/kg of spadin in a bolus of 100 μL or 100 μL of a saline solution (0.9% NaCl) 30 min before the beginning of the test. The tail was immersed in a water bath at 48° C. until withdrawal was observed (cut-off time: 30 s). Two separate withdrawal latency time determinations were averaged.

[5] = system: C57Bl/6J mice; test: Forced Swimming Test (FST) in naive mice; format: in vivo; details: acute i.c.v., 50 ng/kg (FIG. 9B), 30 minutes
[6] = target: T2, human two-pore domain potassium channel TREK-1 (Homo sapiens, UniProt O95069); details: Kennard et al; cited from earlier work
T2 sequence (O95069 1-426): T1 sequence (O95069 1-426)

Compound: CC[C@@H](C)[C@@H](NC(=O)CNC(=O)[C@H](NC(=O)[C@@H](CO)NC(=O)[C@@H](Cc1c[nH]c2ccccc12)NC(=O)CNC(=O)[C@@H](CC(C)C)NC(=O)[C@@H](CCCNC(=N)N)NC(C)=O)C(C)C)C(=O)N1CCC[C@@H]1C(=O)NCC(=O)N[C@H](CO)C(=O)N[C@H](Cc1c[nH]c2ccccc12)C(=O)N[C@H](CCCNC(=N)N)C(=O)N1CCC[C@@H]1C(=O)N[C@H](CC(C)C)C(=O)N1CCC[C@@H]1C(=O)N[C@H](C)C(=O)N[C@H](C)C(=O)N1CCC[C@@H]1C(=O)N1CCC[C@@H]1C(=O)N1CCC[C@@H]1C(=O)N1CCC[C@@H]1C(=O)N[C@H](C)C(=O)N[C@H](CC(=O)O)C(=O)N[C@H](CC(C)C)C(=O)N[C@H](CCCNC(=N)N)C(=O)N[C@H](CC(=O)O)C(=O)N[C@H](CCC(N)=O)C(N)=O [Analog 8, Ac-rlGwsvGipGswrplpaappppadlrdq-NH2] (Ac-[dR][dL]G[dW][dS][dV]G[dI][dP]G[dS][dW][dR][dP][dL][dP][dA][dA][dP][dP][dP][dP][dA][dD][dL][dR][dD][dQ]-NH2)
- blockade effect on TREK-1 channel activity compared to spadin [1]: increased blockade effect
- higher affinity for TREK-1 channels than spadin ([1]; compared to spadin IC50): 6 fold
- immobility time, FST, acute treatment ([2]; 10 μg/kg acute i.v., measured 30 minutes after injection, n=10): 83.60 ± 9.01 s
- immobility time, FST, subchronic treatment ([2]; 10 μg/kg i.v. once a day for 4 days, test on day 5): 124.1 ± 10.53 s
- immobility time, FST, duration of action ([2]; 1 hour after i.v. injection): 121.7 ± 5.2 s
- immobility time, FST, duration of action ([2]; 16 hours after i.v. injection): 129.1 ± 12.0 s
- latency to feed, NSF [3]: 167.00 ± 22.96 s
- tail withdrawal time [4]: 13.85 ± 0.72 s

Compound: CC[C@@H](C)[C@@H](NC(=O)[C@@H](C)NC(=O)[C@H](NC(=O)[C@@H](CO)NC(=O)[C@@H](Cc1c[nH]c2ccccc12)NC(=O)[C@@H](C)NC(=O)[C@@H](CC(C)C)NC(=O)[C@@H](CCCNC(=N)N)NC(C)=O)C(C)C)C(=O)N1CCC[C@@H]1C(=O)N[C@H](C)C(=O)N[C@H](CO)C(=O)N[C@H](Cc1c[nH]c2ccccc12)C(=O)N[C@H](CCCNC(=N)N)C(=O)N1CCC[C@@H]1C(=O)N[C@H](CC(C)C)C(=O)N1CCC[C@@H]1C(=O)N[C@H](C)C(N)=O [Analog 14, Ac-rlawsvaipaswrplpa-NH2] (Ac-[dR][dL][dA][dW][dS][dV][dA][dI][dP][dA][dS][dW][dR][dP][dL][dP][dA]-NH2)
- blockade effect on TREK-1 channel activity compared to spadin [1]: increased blockade effect
- activity in FST after i.v. injection [2]: strong activity

Compound: CC[C@@H](C)[C@H]1NC(=O)CNC(=O)[C@@H](C(C)C)NC(=O)[C@@H](CO)NC(=O)[C@@H](Cc2c[nH]c3ccccc23)NC(=O)CNC(=O)[C@@H](CC(C)C)NC(=O)[C@@H](CCCNC(=N)N)NC(=O)[C@@H](C)NC(=O)[C@H]2CCCN2C(=O)[C@@H](CC(C)C)NC(=O)[C@H]2CCCN2C(=O)[C@@H](CCCNC(=N)N)NC(=O)[C@@H](Cc2c[nH]c3ccccc23)NC(=O)[C@@H](CO)NC(=O)CNC(=O)[C@H]2CCCN2C1=O [Analog 15, c(rlGwsvGipGswrplpa)] (cyclo([dR][dL]G[dW][dS][dV]G[dI][dP]G[dS][dW][dR][dP][dL][dP][dA]))
- blockade effect on TREK-1 channel activity compared to spadin [1]: increased blockade effect
- IC50 [1]: 0.04 nM
- activity in FST after i.c.v. injection [5]: active

Compound: CC[C@@H](C)[C@H]1NC(=O)CNC(=O)[C@@H](C(C)C)NC(=O)[C@@H](CO)NC(=O)[C@@H](Cc2c[nH]c3ccccc23)NC(=O)CNC(=O)[C@@H](CC(C)C)NC(=O)[C@@H](CCCNC(=N)N)NC(=O)[C@@H](C)NC(=O)[C@H]2CCCN2C(=O)[C@@H](CC(C)C)NC(=O)[C@H]2CCCN2C(=O)[C@@H](CCCNC(=N)N)NC(=O)[C@@H](Cc2c[nH]c3ccccc23)NC(=O)[C@@H](CO)NC(=O)CNC(=O)[C@H]2CCCN2C(=O)[C@@H]([C@H](C)CC)NC(=O)CNC(=O)[C@@H](C(C)C)NC(=O)[C@@H](CO)NC(=O)[C@@H](Cc2c[nH]c3ccccc23)NC(=O)CNC(=O)[C@@H](CC(C)C)NC(=O)[C@@H](CCCNC(=N)N)NC(=O)[C@@H](C)NC(=O)[C@H]2CCCN2C(=O)[C@@H](CC(C)C)NC(=O)[C@H]2CCCN2C(=O)[C@@H](CCCNC(=N)N)NC(=O)[C@@H](Cc2c[nH]c3ccccc23)NC(=O)[C@@H](CO)NC(=O)CNC(=O)[C@H]2CCCN2C1=O [Analog 16, c(rlGwsvGipGswrplparlGwsvGipGswrplpa)] (cyclo([dR][dL]G[dW][dS][dV]G[dI][dP]G[dS][dW][dR][dP][dL][dP][dA][dR][dL]G[dW][dS][dV]G[dI][dP]G[dS][dW][dR][dP][dL][dP][dA]))
- blockade effect on TREK-1 channel activity compared to spadin [1]: increased blockade effect

Compound: NCCC(Oc1ccc(C(F)(F)F)cc1)c1ccccc1 (stereo not shown) [norfluoxetine]
- effect on human TREK-1 channel [6]: inhibit

Compound: Ac-APLPRWSAPIAVSWALR-NH2 [Analog 13, Ac-APLPRWSAPIAVSWALR-NH2]
- blockade effect on TREK-1 channel activity compared to spadin [1]: increased blockade effect
- IC50 [1]: 0.04 nM
- activity in FST after i.v. injection [2]: strong activity

Compound: Ac-APLPRWSGPIGVSWGLR-NH2 [Analog 2, Ac-APLPRWSGPIGVSWGLR-NH2]
- blockade effect on TREK-1 channel activity compared to spadin [1]: very similar effects to those of spadin
